Our source for the EC50 values is patent US8030354B2, “Substituted biphenyl GPR40 modulators” (Amgen Inc., priority 2007, dated 2011).

This test deals with GPR40 (Homo sapiens, UniProt O14842). Description: Cell-based aequorin assay (CHO cells stably expressing GPR40 and aequorin). Set-up: expressed in transfected cells; host or cells: CHO cells stably transfected with GPR40 and aequorin. To be noted: activation of human GPR40, CHO cells, 0.01% HSA. The protocol: Briefly, the Aequorin assays were performed on doubly stable CHO cells expressing GPR40 and Aequorin DNA. […] The luminescence was recorded over a period of 20 seconds with a Microlumat luminometer (Berthold). […] The inositol phosphate assay was performed on an A9 cell line stably transfected with GPR40 (A9_GPR40). The cells were incubated with different concentrations of compounds and [^3H] inositol accumulation was measured after 1 hour.
GPR40, sequence (O14842 whole entry): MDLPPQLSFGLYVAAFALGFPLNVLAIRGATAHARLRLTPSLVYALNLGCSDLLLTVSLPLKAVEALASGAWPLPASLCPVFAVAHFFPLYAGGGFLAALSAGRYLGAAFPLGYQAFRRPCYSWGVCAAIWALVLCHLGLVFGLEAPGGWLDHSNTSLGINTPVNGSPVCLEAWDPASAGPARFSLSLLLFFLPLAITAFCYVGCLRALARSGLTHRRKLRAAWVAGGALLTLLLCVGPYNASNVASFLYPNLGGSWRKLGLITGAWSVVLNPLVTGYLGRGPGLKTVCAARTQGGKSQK
Cell-based aequorin assays were employed to characterize the modulatory activity of compounds on the GPR40 signaling pathway. In an exemplary assay, CHO cells were stably transfected with both GPR40 and Aequorin (Euroscreen). Cells were detached from the tissue culture dish with 2 mL of trypsin (0.25%(w/v)). Trypsinization was halted with 28 mL of Hanks Buffered Salt Solution containing 20 mM Hepes (H/HBSS) and 0.01% fatty acid-free human serum albumin (HSA). Coelantrazine is added to 1 ug/mL, and the cells were incubated for 2 hours at room temperature. Compounds were dissolved in DMSO for preparation of 10 mM stock solutions. Compounds were diluted in H/HBSS containing 0.01% HSA. Serial dilutions of the test compounds were prepared to determine dose response.
Aequorin luminescence measurements were made using an EG&G Berthold 96-well luminometer, and the response was measured over a 20 second interval after cells and compounds were mixed. The maximum relative light units was plotted to determine dose response. The EC50 (effective concentration to reach 50% maximal response) was determined from the dose response plot.
In the case of `CSc1cccc(-c2ccc(COc3cccc(C(C)CC(=O)O)c3)cc2C(C)(C)C)c1` (single isomer, unassigned) [Example 64.23, (3R)-3-(3-(((2-(1,1-Dimethylethyl)-3′-(methylsulfanyl)-1,1′-biphenyl-4-yl)methyl)oxy)phenyl)butanoic acid or (3S)-3-(3-(((2-(1,1-dimethylethyl)-3′-(methylsulfanyl)-1,1′-biphenyl-4-yl)methyl)oxy)phenyl)butanoic acid], the EC50 (as a rule, the concentration that produces a half-maximal response) lay within 1000 to 10000 nM.

As for `CCOc1cccc(-c2ccc(COc3cccc(C(C)CC(=O)O)c3)cc2C(C)(C)C)c1` (single isomer, unassigned) [Example 64.24, (3R)-3-(3-(((2-(1,1-Dimethylethyl)-3′-(ethyloxy)-1,1′-biphenyl-4-yl)methyl)oxy)phenyl)butanoic acid or (3S)-3-(3-(((2-(1,1-dimethylethyl)-3′-(ethyloxy)-1,1′-biphenyl-4-yl)methyl)oxy)phenyl)butanoic acid], the EC50 fell in the range of 1000 to 10000 nM.

Take `COc1ccc(F)c(-c2ccc(C(C)Oc3cccc(C(C)CC(=O)O)c3)cc2C(C)(C)C)c1` (single isomer, unassigned) [Example 64.25]: the EC50 was in the range of 1000 to 10000 nM.

Consider `CCCCOc1cc(COc2cccc(C(C)CC(=O)O)c2)ccc1-c1cccc(F)c1` (single isomer, unassigned) [Example 64.26, (3R)-3-(3-(((2-(butyloxy)-3′-fluoro-1,1′-biphenyl-4-yl)methyl)oxy)phenyl)butanoic acid or (3S)-3-(3-(((2-(butyloxy)-3′-fluoro-1,1′-biphenyl-4-yl)methyl)oxy)phenyl)butanoic acid], for which the EC50 was 1000 to 10000 nM.

On to `CCCCOc1cc(COc2cccc(C(CC)CC(=O)O)c2)ccc1-c1cccc(OC)c1` (single isomer, unassigned) [Example 65.2, (3R)-3-(3-(((2-(Butyloxy)-3′-(methyloxy)-1,1′-biphenyl-4-yl)methyl)oxy)phenyl)pentanoic acid or (3S)-3-(3-(((2-(butyloxy)-3′-(methyloxy)-1,1′-biphenyl-4-yl)methyl)oxy)phenyl)pentanoic acid], for which the EC50 was 100 to 1000 nM.

Compound `CCCCOc1cc(COc2cccc(C(CC(=O)O)C3CC3)c2)ccc1-c1cccc(OC)c1` (single isomer, unassigned) [Example 66.1, (3S)-3-(3-(((2-(Butyloxy)-3′-(methyloxy)-1,1′-biphenyl-4-yl)methyl)oxy)phenyl)-3-cyclopropylpropanoic acid or (3R)-3-(3-(((2-(butyloxy)-3′-(methyloxy)-1,1′-biphenyl-4-yl)methyl)oxy)phenyl)-3-cyclopropylpropanoic acid] displayed an EC50 of 100 to 1000 nM.

In the case of `COc1ccc(F)c(-c2ccc(COc3cccc(C(CC(=O)O)C4CC4)c3)cc2C2CCCC2(C)C)c1` (single isomer, unassigned) [Example 66.5], the EC50 was 100 to 1000 nM.

As to `COc1cccc(-c2ccc(COc3cccc(C(CC(=O)O)C4CC4)c3)cc2C2CCCC2(C)C)c1` (single isomer, unassigned) [Example 66.7], the EC50 is 100 to 1000 nM.

In the case of `CC1(C)CCC=C1c1cc(COc2cccc([C@@H](CC(=O)O)C3CC3)c2)ccc1-c1cc(O)ccc1F` (single isomer, unassigned) [Example 66.14, (3S)-3-Cyclopropyl-3-(3-(((2-(5,5-dimethyl-1-cyclopenten-1-yl)-2′-fluoro-5′-hydroxy-1,1′-biphenyl-4-yl)methyl)oxy)phenyl)propanoic acid or (3R)-3-cyclopropyl-3-(3-(((2-(5,5-dimethyl-1-cyclopenten-1-yl)-2′-fluoro-5′-hydroxy-1,1′-biphenyl-4-yl)methyl)oxy)phenyl)propanoic acid], the EC50 lay in the range of 100 to 1000 nM.

The compound `COc1ccc(F)c(-c2ccc(COc3cccc([C@@H](CC(=O)O)C4CC4)c3)cc2C2CCCCCCC2)c1` (single isomer, unassigned) [Example 66.16, (3S)-3-(3-(((2-Cyclooctyl-2′-fluoro-5′-(methyloxy)-1,1′-biphenyl-4-yl)methyl)oxy)phenyl)-3-cyclopropylpropanoic acid or (3R)-3-(3-(((2-cyclooctyl-2′-fluoro-5′-(methyloxy)-1,1′-biphenyl-4-yl)methyl)oxy)phenyl)-3-cyclopropylpropanoic acid] registered an EC50 of 100 to 1000 nM.

In turn, `COc1ccc(F)c(-c2ccc(COc3cccc([C@@H](CC(=O)O)C4CC4)c3)cc2[C@H](C)C(C)(C)C)c1` (single isomer, unassigned) [Example 66.18] had an EC50 of 100 to 1000 nM.

Take `COc1ccc(F)c(-c2ccc(COc3cccc([C@@H](CC(=O)O)C4CC4)c3)cc2[C@@H]2CCCCC2(C)C)c1` (single isomer, unassigned) [Example 66.21]: the EC50 fell in the range of 100 to 1000 nM.

As to `CC1(C)CCC[C@@H]1c1cc(COc2cccc([C@@H](CC(=O)O)C3CC3)c2)ccc1-c1cc(OCC(F)(F)F)ccc1F` (single isomer, unassigned) [Example 66.23], the EC50 fell in the range of 1000 to 10000 nM.

Consider `CC1(C)CCC[C@@H]1c1cc(COc2cccc([C@@H](CC(=O)O)C3CC3)c2)ccc1-c1cc(OC(F)(F)F)ccc1F` (single isomer, unassigned) [Example 66.29], for which the EC50 lay within 100 to 1000 nM.

Compound `COc1ccc(F)c(-c2ccc(COc3cccc([C@@H](CC(=O)O)C4CC4)c3)cc2[C@H](F)C(C)(C)C)c1` (single isomer, unassigned) [Example 66.30] had an EC50 of 100 to 1000 nM.

In the case of `CO[C@@H](c1cc(COc2cccc([C@@H](CC(=O)O)C3CC3)c2)ccc1-c1ccccc1F)C(C)(C)C` (single isomer, unassigned) [Example 66.32], the EC50 fell in the range of 100 to 1000 nM.

`CC1(C)CCCC=C1c1cc(COc2cccc(C(CC(=O)O)C3CC3)c2)ccc1-c1cc(=O)[nH]cc1F` (single isomer, unassigned) [Example 66.35, (3S)-3-Cyclopropyl-3-(3-(((3-(6,6-dimethyl-1-cyclohexen-1-yl)-4-(5-fluoro-2-oxo-1,2-dihydro-4-pyridinyl)phenyl)methyl)oxy)phenyl)propanoic acid or (3R)-3-cyclopropyl-3-(3-(((3-(6,6-dimethyl-1-cyclohexen-1-yl)-4-(5-fluoro-2-oxo-1,2-dihydro-4-pyridinyl)phenyl)methyl)oxy)phenyl)propanoic acid] came in with an EC50 of 1000 to 10000 nM.

In turn, `COc1ccc(F)c(-c2ccc(COc3cccc([C@@H](CC(=O)O)C4CC4)c3)cc2C(C2CC2)N(C)C)c1` (single isomer, unassigned) [Example 66.38, (3S)-3-Cyclopropyl-3-(3-(((2-(cyclopropyl(dimethylamino)methyl)-2′-fluoro-5′-(methyloxy)-1,1′-biphenyl-4-yl)methyl)oxy)phenyl)propanoic acid or (3R)-3-cyclopropyl-3-(3-(((2-(cyclopropyl(dimethylamino)methyl)-2′-fluoro-5′-(methyloxy)-1,1′-biphenyl-4-yl)methyl)oxy)phenyl)propanoic acid] came in with an EC50 of 1000 to 10000 nM.

Compound `COc1ccc(F)c(-c2ccc(COc3cccc([C@@H](CC(=O)O)C4CC4)c3)cc2C(OC)C(C)(C)CO)c1` (single isomer, unassigned) [Example 66.41, (S)-3-Cyclopropyl-3-{3-[2′-fluoro-2-(3-hydroxy-1-methoxy-2,2-dimethyl-propyl)-5′-methoxy-biphenyl-4-ylmethoxy]-phenyl}-propionic acid or (R)-3-cyclopropyl-3-{3-[2′-fluoro-2-(3-hydroxy-1-methoxy-2,2-dimethyl-propyl)-5′-methoxy-biphenyl-4-ylmethoxy]-phenyl}-propionic acid] displayed an EC50 of 100 to 1000 nM.
